Several values for one entry are separate records, joined by “and”; a condition that tells them apart may be missing. Identical values can stand only once.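 In this assay, cells in 96-well plates receive the compound at five concentrations for 48 hours. Endpoints are linearly interpolated between the surrounding concentrations. Abbreviation: GI50, concentration required for 50% inhibition of growth. The concentration for full growth arrest is given as TGI.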 Some results are limits rather than exact numbers.

Some test systems named below: A498 renal; CCRF-CEM leukemia; EKVX NSCLC; HCT-116 colon; MALME-3M melanoma; OVCAR-4 ovarian; SF-268 CNS; SK-MEL-2 melanoma; SW-620 colon; UACC-62 melanoma.
Assay in all cases: NCI tumour cell line growth inhibition, 48 h

`CC12CCC3C(CC=C4CC(O)CCC43C)C1C/C(=C\N1CCCC1)C2=O` (stereo not given): the GI50 in the test on A498 renal is over 100 µM; in the test with CCRF-CEM leukemia, 79.3 µM; with EKVX NSCLC, 46.6 µM; in the test with HCT-116 colon, 69.3 µM; with MALME-3M melanoma, 71.5 µM; in the test with OVCAR-4 ovarian, 61 µM. Also, the GI50 in the test with SF-268 CNS was over 100 µM; in the test with SK-MEL-2 melanoma, over 100 µM; in the test on SW-620 colon, over 100 µM; in the test with UACC-62 melanoma, 41.2 µM. Besides, the TGI in the test on A498 renal, in the test with CCRF-CEM leukemia, in the test with EKVX NSCLC, in the test on HCT-116 colon, in the test on MALME-3M melanoma and with OVCAR-4 ovarian was over 100 µM each time. Besides, the TGI with SF-268 CNS, in the test with SK-MEL-2 melanoma, with SW-620 colon and with UACC-62 melanoma was over 100 µM each time.
Regarding `COc1ccc(/C=C/C(=O)c2cc3c(N)c(C(=O)Nc4ccccc4Cl)sc3nc2C)cc1`, the GI50 in the test on A498 renal was 0.866 µM; with CCRF-CEM leukemia, 10.4 µM; with EKVX NSCLC, 2.25 µM; in the test with HCT-116 colon it was 1.11 µM; in the test with MALME-3M melanoma it was 0.736 µM; in the test on OVCAR-4 ovarian, 1.7 µM. The GI50 in the test on SF-268 CNS is 3.39 µM; in the test with SK-MEL-2 melanoma it was 1.31 µM; in the test on SW-620 colon, 3.39 µM; in the test on UACC-62 melanoma it was 0.391 µM. For the same compound, the TGI in the test with A498 renal was 4.51 µM; with CCRF-CEM leukemia, over 50 µM; with EKVX NSCLC, over 50 µM; with HCT-116 colon, over 50 µM; in the test with MALME-3M melanoma it was 9.21 µM; with OVCAR-4 ovarian, 46 µM. Moreover, the TGI was 27.9 µM with SF-268 CNS, 16.7 µM in the test on SK-MEL-2 melanoma, over 50 µM in the test on SW-620 colon and 8.93 µM in the test on UACC-62 melanoma.
With `Cc1ccc(NC(=O)CC2C(=O)Nc3ccccc3S2=O)cc1C` (stereo not given), the TGI was over 100 µM with A498 renal; over 100 µM in the test on CCRF-CEM leukemia; over 100 µM in the test on EKVX NSCLC; over 100 µM in the test with HCT-116 colon; over 100 µM in the test on MALME-3M melanoma; 34.3 µM in the test on OVCAR-4 ovarian. The TGI in the test with SF-268 CNS, in the test on SK-MEL-2 melanoma, in the test with SW-620 colon and in the test with UACC-62 melanoma was over 100 µM throughout.
As for `C[C@]12CCC3[C@@H](C[C@@H]4SC(Nc5ccccc5)=N[C@@]45CC(=O)CC[C@]35C)[C@@H]1CCC2=O` (stereo not given in full), the GI50 in the test with A498 renal is 28.8 µM; with CCRF-CEM leukemia, 2.84 µM; in the test on EKVX NSCLC, 38.8 µM; in the test with HCT-116 colon it was 1.91 µM; with MALME-3M melanoma, 21.2 µM; in the test on OVCAR-4 ovarian it was 18.9 µM. The GI50 was 5.95 µM in the test with SF-268 CNS, 17.1 µM in the test on SK-MEL-2 melanoma, 3.38 µM in the test on SW-620 colon and 9.54 µM in the test on UACC-62 melanoma. Besides, the TGI was over 100 µM with A498 renal; over 100 µM in the test on CCRF-CEM leukemia; over 100 µM in the test with EKVX NSCLC; 4.16 µM with HCT-116 colon; over 100 µM in the test on MALME-3M melanoma; over 100 µM with OVCAR-4 ovarian. Moreover, the TGI with SF-268 CNS is 70 µM; with SK-MEL-2 melanoma, 60.8 µM; in the test on SW-620 colon it was 15.6 µM; in the test on UACC-62 melanoma, 29.6 µM.
As for `OCc1cn(Cc2cccc(Cl)c2)c2ccccc12`, the GI50 with A498 renal was 0.0142 µM; in the test on CCRF-CEM leukemia, 11 µM; in the test with EKVX NSCLC it was 17.3 µM; with HCT-116 colon, under 0.0163 µM; in the test on MALME-3M melanoma it was 12.3 µM; with OVCAR-4 ovarian, 0.107 µM. Further, the GI50 is 14 µM in the test with SF-268 CNS, 3.16 µM in the test with SK-MEL-2 melanoma, 0.586 µM in the test with SW-620 colon and under 0.0199 µM in the test on UACC-62 melanoma. For the same compound, the TGI was 0.0305 µM in the test with A498 renal; over 69.8 µM in the test on CCRF-CEM leukemia; 56.1 µM with EKVX NSCLC; 13.5 µM in the test with HCT-116 colon; 30.6 µM in the test with MALME-3M melanoma; 11.3 µM in the test with OVCAR-4 ovarian. The TGI with SF-268 CNS was found to be 38.1 µM; in the test with SK-MEL-2 melanoma it was 14.8 µM; in the test on SW-620 colon, 33.3 µM; with UACC-62 melanoma, 1.5 µM.
In the case of `O=C(/C=C/c1cccnc1)NCCCCC1CCN(C(=O)c2ccccc2)CC1`, the GI50 with A498 renal is > 100 µM and 14.5 µM; with CCRF-CEM leukemia, under 0.01 µM; in the test on EKVX NSCLC it was over 66.9 µM; with HCT-116 colon it was under 0.01 µM; in the test on MALME-3M melanoma, over 86.5 µM; in the test with OVCAR-4 ovarian, > 66 µM and 26.2 µM. In addition, the GI50 in the test with SF-268 CNS was over 100 µM; with SK-MEL-2 melanoma, over 100 µM; in the test with SW-620 colon, under 0.01 µM; with UACC-62 melanoma, 70.3 µM and > 58 µM. Further, the TGI in the test on A498 renal is > 100 µM and 97.8 µM; with CCRF-CEM leukemia, over 100 µM; in the test on EKVX NSCLC, over 100 µM; in the test on HCT-116 colon, over 100 µM; in the test on MALME-3M melanoma, over 100 µM; in the test on OVCAR-4 ovarian it was over 100 µM. The TGI in the test with SF-268 CNS, in the test on SK-MEL-2 melanoma, in the test on SW-620 colon and with UACC-62 melanoma was over 100 µM each time.
For the compound `CC(=O)OC[C@H]1O[C@@H](n2ccc(=O)[nH]c2=O)[C@H](OC(C)=O)[C@@H]1OC(C)=O`, the GI50 in the test with A498 renal, with CCRF-CEM leukemia, in the test on EKVX NSCLC, in the test with HCT-116 colon, in the test on MALME-3M melanoma and in the test on OVCAR-4 ovarian was over 100 µM throughout. Moreover, the GI50 with SF-268 CNS, in the test on SK-MEL-2 melanoma, with SW-620 colon and in the test on UACC-62 melanoma was over 100 µM each time. Also, the TGI in the test with A498 renal, in the test on CCRF-CEM leukemia, in the test on EKVX NSCLC, with HCT-116 colon, in the test with MALME-3M melanoma and in the test with OVCAR-4 ovarian was over 100 µM throughout. For the same compound, the TGI with SF-268 CNS, in the test with SK-MEL-2 melanoma, in the test on SW-620 colon and in the test with UACC-62 melanoma was over 100 µM each time.
As for `O=c1n(C2CCCCC2)c(=C(Cl)Cl)c(=C(Cl)Cl)n1C1CCCCC1`, the TGI with A498 renal, in the test with CCRF-CEM leukemia, in the test with EKVX NSCLC, in the test on HCT-116 colon, in the test on MALME-3M melanoma and in the test on OVCAR-4 ovarian was over 100 µM throughout. Moreover, the TGI in the test on SF-268 CNS, in the test with SK-MEL-2 melanoma, with SW-620 colon and with UACC-62 melanoma was over 100 µM throughout.

These data come from PubChem BioAssay (NCI).
